The source of these data is EP1247803A2, “Indolinone compounds suitable for modulation of protein kinases” (Sugen, Inc., priority 1996, dated 1998).

For assay [1], the target named is PDGF-R (Homo sapiens, UniProt P09619). The assay is described as follows: PDGF-R ELISA. Type of assay: cell-based. The source says:
A PDGF-R ELISA is described in International Patent Publication No. WO 96/40116, published December 19, 1996 by Tang et al.
In general terms: An ELISA detects its analyte on a solid surface through an enzyme-linked reagent.

Assay [2] concerns the target T1, EGFR (Homo sapiens, UniProt P00533).
T1 construct: Add 7 ug A431 cell lysate per well (EGFR source); endogenous in cells; host or cells: A431
Put plainly: EGFR ELISA assay (in vitro kinase activity, EGFR captured from A431 cell lysate). Also on record: concentration or dose not given beside the values. Type of assay: biochemical. The text has this:
To provide a consistent method for measuring the in vitro kinase activity of the EGFR in an Enzyme-linked immunosorbent assay (Elisa).
Scope. The following protocol describes the procedures used to analyze protein tyrosine kinase activity on the EGFR in an Elisa. The procedure also describes the protocol for the initial screening of drugs for inhibition or activation of protein tyrosine kinase activity.
Reagents and Supplies. • 1. […] 05-101 monoclonal anti-EGFR antibody (commercially available from UB1) -80° C, 1 ml aliquots • 3. […] TBST Buffer Formulation: 50 mM Tris pH 7.2 150 mM NaCl 0.1% Triton X-100 • 5. Blocking Buffer Formulation: 5% Carnation Instant Milk in PBS • 6. A431 cell lysate A431 cells are available from a variety of commercial sources and may be used lysed using conventional methods known to those skilled in the art or as described for lysis of the 3T3 cells in the EGF cellular assay described herein. -80° C, 1 ml aliquots • 7. TBS Buffer Formulation: 50 mM Tris pH 7.2 150 mM NaCl • 8. […] NUNC 96-well V bottom polypropylene plates Applied Scientific Catalog # AS-72092 • 11. EDTA Formulation: 200 mM EDTA pH 8.0 • 12. […] Goat anti-rabbit IgG peroxidase conjugate Biosource Catalog # ALI0404 • 14. ABTS Solution Formulation: 100 mM Citric Acid (anhydrous) 250 mM Na2HPO4 pH 4.0 0.5 mg/ml ABTS (2,2'-azino-bis(3-ethylbenzthiazoline-6-sulfonic acid) (Sigma Catalog # A-1888) Keep solution in dark at 4 C until ready to use • 15. Hydrogen peroxide 30% solution Fisher Catalog # H325 Store in the dark at 4 C until ready to use • 16. ABTS/H2O2 Formulation: 15 mls ABTS solution 2 ul H2O2 Prepare 5 minutes before use and room temperature • 17. 0.2 M HCL stock in H2O Procedure. • 1. Coat Corning 96-well elisa plates with 0.5 ug per well 05-101 antibody. Bring final volume to 100 ul per well with PBS. Coat plates overnight at 4° C. • 2. Remove unbound 05-101 from wells by inverting plate to remove liquid. Wash 1x with distilled H2O by filling wells Pat the plate on a paper towel to remove excess liquid. • 3. Block plates with 5% milk in PBS. 150 ul per well. Incubate plate 30 minutes while shaking on a microtiter plate shaker. • 4. Wash plate 3x with dionized water, then once with TBST • 5. Add 7 ug A431 cell lysate per well (EGFR source). Add PBS to final volume of 100 ul per well Incubate 30 minutes while shaking. • 6. Wash as described in step 4. • 7. At this point, drugs or extracts are added to the wells. Dilute drugs/extracts 1:100 (unless specified otherwise) in TBS + 10% DMSO in 96-well polypropylene plates. Add 120 ul TBS to ELISA plate containing captured EGFR. Add 13.5 ul diluted drugs/extracts to ELISA plate. […] Incubate plate 30 minutes while shaking. • 8. […] (150 ul final volume in well with 3 uM ATP/5 mM MnCl2 final concentration in well.) Incubate 5 minutes while shaking vigorously. *NOTE: It is critical that ATP/MnCl2 phosphorylates the receptor for 5 minutes only. It is best to add the ATP/MnCl2 with an 12 channel pipettor 1 row at a time leaving 20 seconds between each row so that the reaction may be stopped with EDTA exactly 5 minutes later (this depends on the number of plates being phosphorylated in one batch). Shake between each addition. • 9. After 5 minutes, to stop reaction, add 16.5 ul of 200 mM EDTA pH 8.0 for 20 mM final in well, shaking continuously between each addition. This is done using the same timing method as above. After last row has received EDTA, shake plate an additional minute. • 10. Wash 4x with deionized water, twice with TBST. • 11. Add rabbit polyclonal anti-phosphotyrosine serum. Dilute 1:3000 in TBST. Add 100 ul per well. Incubate 30-45 minutes while shaking. • 12. Wash as described above in step 4. • 13. Add BioSource anti-rabbit peroxidase conjugate antibody. Dilute 1:2000 in TBST. Add 100 ul per well. Incubate 30 minutes while shaking. • 14. Wash as described in step 4. • 15. Add 100 ul of ABTS/H2O2 solution to well. Incubate 5 to 10 minutes while shaking. Remove bubbles • 16. […]

Sequence of PDGF-R (P09619 33-1106, species assumed): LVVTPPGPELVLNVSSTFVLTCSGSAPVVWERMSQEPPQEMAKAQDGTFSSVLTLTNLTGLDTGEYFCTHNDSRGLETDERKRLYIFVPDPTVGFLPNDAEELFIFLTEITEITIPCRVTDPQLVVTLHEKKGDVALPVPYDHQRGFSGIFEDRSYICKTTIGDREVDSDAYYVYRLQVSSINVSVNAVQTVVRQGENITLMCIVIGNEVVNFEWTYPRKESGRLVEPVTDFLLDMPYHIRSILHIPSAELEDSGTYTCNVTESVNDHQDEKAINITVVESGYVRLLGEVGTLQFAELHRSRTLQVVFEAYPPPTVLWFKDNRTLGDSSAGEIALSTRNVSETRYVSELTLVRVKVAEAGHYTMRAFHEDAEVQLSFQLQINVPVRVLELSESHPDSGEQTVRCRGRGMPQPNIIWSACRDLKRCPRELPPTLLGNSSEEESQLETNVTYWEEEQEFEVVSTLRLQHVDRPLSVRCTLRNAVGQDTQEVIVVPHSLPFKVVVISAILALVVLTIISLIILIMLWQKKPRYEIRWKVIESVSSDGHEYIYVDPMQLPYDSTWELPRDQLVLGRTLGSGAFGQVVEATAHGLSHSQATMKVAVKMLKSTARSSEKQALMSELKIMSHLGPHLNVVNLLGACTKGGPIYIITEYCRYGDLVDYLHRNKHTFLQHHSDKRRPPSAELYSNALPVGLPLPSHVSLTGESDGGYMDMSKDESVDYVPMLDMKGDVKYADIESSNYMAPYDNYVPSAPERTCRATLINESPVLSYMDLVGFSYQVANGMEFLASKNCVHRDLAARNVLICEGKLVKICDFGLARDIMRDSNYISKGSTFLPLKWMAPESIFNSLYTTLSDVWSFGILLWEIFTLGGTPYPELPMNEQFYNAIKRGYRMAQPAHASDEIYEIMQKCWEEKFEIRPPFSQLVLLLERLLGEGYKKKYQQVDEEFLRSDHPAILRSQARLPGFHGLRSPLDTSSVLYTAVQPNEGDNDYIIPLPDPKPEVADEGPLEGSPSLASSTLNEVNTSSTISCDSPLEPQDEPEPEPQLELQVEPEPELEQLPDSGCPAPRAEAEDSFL
T1 sequence (P00533 25-1210): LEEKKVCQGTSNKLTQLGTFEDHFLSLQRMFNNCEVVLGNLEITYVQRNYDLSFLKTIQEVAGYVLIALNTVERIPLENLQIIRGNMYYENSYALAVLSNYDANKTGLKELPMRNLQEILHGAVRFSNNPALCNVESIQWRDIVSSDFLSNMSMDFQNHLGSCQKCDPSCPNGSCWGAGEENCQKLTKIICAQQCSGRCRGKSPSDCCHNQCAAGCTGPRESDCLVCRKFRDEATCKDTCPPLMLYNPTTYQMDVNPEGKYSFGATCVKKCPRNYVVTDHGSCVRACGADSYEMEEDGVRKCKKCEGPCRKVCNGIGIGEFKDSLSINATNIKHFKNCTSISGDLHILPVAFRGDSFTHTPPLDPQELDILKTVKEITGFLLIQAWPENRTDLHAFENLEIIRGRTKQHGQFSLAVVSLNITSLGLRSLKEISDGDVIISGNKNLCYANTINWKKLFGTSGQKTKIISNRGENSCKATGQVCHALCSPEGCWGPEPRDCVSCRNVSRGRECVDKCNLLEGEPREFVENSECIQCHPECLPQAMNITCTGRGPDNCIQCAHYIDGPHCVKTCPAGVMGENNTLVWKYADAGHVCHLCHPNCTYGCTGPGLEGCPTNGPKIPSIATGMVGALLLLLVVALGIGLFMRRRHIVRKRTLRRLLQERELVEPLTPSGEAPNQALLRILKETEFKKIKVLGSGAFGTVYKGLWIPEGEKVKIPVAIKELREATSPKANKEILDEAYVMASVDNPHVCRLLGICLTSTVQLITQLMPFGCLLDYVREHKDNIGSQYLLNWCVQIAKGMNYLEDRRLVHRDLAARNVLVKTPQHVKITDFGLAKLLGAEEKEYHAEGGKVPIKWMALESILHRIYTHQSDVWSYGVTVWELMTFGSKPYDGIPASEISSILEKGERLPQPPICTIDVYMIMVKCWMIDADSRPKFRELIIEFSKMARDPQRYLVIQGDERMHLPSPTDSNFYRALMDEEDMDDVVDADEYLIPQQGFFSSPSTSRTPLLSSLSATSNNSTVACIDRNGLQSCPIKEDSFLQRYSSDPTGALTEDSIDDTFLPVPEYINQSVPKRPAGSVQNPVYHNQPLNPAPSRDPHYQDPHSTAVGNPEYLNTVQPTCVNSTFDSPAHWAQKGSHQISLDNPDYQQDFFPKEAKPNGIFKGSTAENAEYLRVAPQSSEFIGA

Take `CNS(=O)(=O)c1ccc2c(c1)C(=CC(c1cccs1)C(F)(F)F)C(=O)N2` (stereo not drawn) [10732/D02]: in assay [1], the “PDGF Kinase %Inhibition” value is -24.0%. Also, in assay [2], the “Biochem EGFR %Inhibition” value is on record as 8.7%.
With `CNS(=O)(=O)c1ccc2c(c1)C(=Cc1cc(C(C)C)c(OC)c(C(C)C)c1)C(=O)N2` [10732/D03], the “PDGF Kinase %Inhibition” value in assay [1] came to 26.0%. Moreover, in assay [2], the “Biochem EGFR %Inhibition” value is -18.7%.
The corresponding values for `CNS(=O)(=O)c1ccc2c(c1)C(=Cc1cc(C(C)C)c(Oc3ccccc3)c(C(C)C)c1)C(=O)N2` [10732/D04] are 50.7% and -11.4%.
For the molecule `CNS(=O)(=O)c1ccc2c(c1)C(=Cc1ccc(OC)c(C(C)(C)C)c1)C(=O)N2` [10732/D05], the “PDGF Kinase %Inhibition” value in assay [1] is 4.3%. For the same molecule, the “Biochem EGFR %Inhibition” value in assay [2] is given as -36.7%.
The corresponding values for `CNS(=O)(=O)c1ccc2c(c1)C(=Cc1ccc(OCc3ccccc3)c(C(C)(C)C)c1)C(=O)N2` [10732/D06] are 16.4% and 3.6%.
As for `CNS(=O)(=O)c1ccc2c(c1)C(=Cc1cc(Br)c(OC)c(C(C)(C)C)c1)C(=O)N2` [10732/D07], the “PDGF Kinase %Inhibition” value in assay [1] is -3.8%. In assay [2], the “Biochem EGFR %Inhibition” value is recorded as -19.1%.
As for `CNS(=O)(=O)c1ccc2c(c1)C(=Cc1cc(Br)c(OCc3ccccc3)c(C(C)(C)C)c1)C(=O)N2` [10732/D08], the “PDGF Kinase %Inhibition” value in assay [1] is recorded as 30.5%. For the same molecule, the “Biochem EGFR %Inhibition” value in assay [2] is recorded as -20.6%.
The corresponding values for `CNS(=O)(=O)c1ccc2c(c1)C(=Cc1cc(Cl)c(OC)c(C(C)(C)C)c1)C(=O)N2` [10732/D09] are 15.9% and -9.9%.
The corresponding values for `CNS(=O)(=O)c1ccc2c(c1)C(=Cc1cc(Cl)c(OCc3ccccc3)c(C(C)(C)C)c1)C(=O)N2` [10732/D10] are 24.5% and -16.6%.
